{
  "source": "patent US20100183645A1",
  "about": "“ACTIVE OR PASSIVE IMMUNIZATION AGAINST PROAPOPTOTIC NEUROTROPHINS FOR THE TREATMENT AND/OR PREVENTION OF NEURODEGENERATIVE DISEASES” (INSTITUT PASTEUR, priority 2003, published 2010)",
  "key": {"[1]": {"system": "pure motor neuron cultures", "test": "Motor neuron survival in pure motor neuron cultures maintained with GDNF", "assay_type": "cell-based, rat", "conditions": "for Motor neuron survival with peroxynitrite-treated neurotrophin: without exogenous nitric oxide, GDNF 1 ng/ml, 48 h", "protocol": "Purified motor neuron cultures were plated at a density of 300 cells/cm^2 in dishes precoated with polyornithinelaminin and maintained in Neurobasal medium supplemented with 2% horse serum, […] L-glutamate, 25 μM β-mercaptoethanol, 0.5 mM L-glutamine, and 2% B-27 supplement (Gibco-Invitrogen). Blocking antibodies were added 3 h after plating at the indicated dilutions. The generation of a low steady state concentration (<50 nM) of nitric oxide was generated by the spontaneous deassociation of 10 μM DETA-NONate (Cayman).\nTo assess the pro-apoptotic activity of conditioned media, astrocyte monolayers were incubated for 24 h in Neurobasal medium supplemented as described above, and that medium immediately used to replace the medium of pure motor neuron cultures established 24 h before. Blocking antibodies and DETA-NONOate were added to the conditioned media and motor neuron survival determined after 48 h.\nTo assess the pro-apoptotic activity in spinal cord extracts, lumbar cords were dissected from 90 day-old G93A mice or non-transgenic littermates over ice under sterile conditions. To 100 mg of tissue were added 0.4 ml of PBS containing 3 mM EGTA, 1 mM EDTA, 0.5 μg/ml aprotinin, 0.5 μg/ml pepstatin and 0.1 mM PMSF at 0° C., and the tissue was then homogenized under sterile conditions. Homogenates were centrifuged at 40,000 g for 1 hr and the clear supernatants collected and kept at −80° C. until used. Aliquots were added to motor neuron cultures to reach a final protein concentration of 0.5 μg/ml. In all cases, blocking antibodies and drugs were added 3 h after motor neuron plating. The generation of a steady state concentration (<50 nM) of nitric oxide was obtained by the spontaneous disassociation of 10 μM NOC-18 (Dojindo, Gaithersburg).\nCell counts. Motor neuron survival was assessed by directly counting all cells displaying intact neurites longer than 4 cells in diameter following immunostaining against p 75NTR Counts were performed over an area of 2.76 cm^2 in the center of 35 mm dishes or in an area measuring 0.90 cm^2 along a diagonal in 24-well plates (Cassina et al., 2002). The mean density of motor neurons in control cocultures was 90±4 cells/cm^2.\nProtocol for preparation of muscle extracts and western blotting. Quadriceps muscles were dissected from symptomatic G93A SOD1 or non transgenic littermate mice over ice under sterile conditions. To 1 g of tissues was added 4 ml of PBS containing 3 mM EGTA, 1 mM EDTA, 0.5 mg/ml aprotinin, 0.5 mg/ml pepstatin and 0.1 mM PMSF at 0° C., and the tissue was homogenized under sterile conditions. Homogenates were centrifuged at 40,000 g for 1 hr and the clear supernatants collected and kept at −80° C. until used. Quadriceps were homogenized in lysis buffer containing 2 mM EDTA, 1% SDS, 1 mM PMSF, 10 μg/ml aprotinin, 1 μg/ml leupeptin and 0.5 mM sodium vanadate. Protein quantification was performed using the BCA Protein Assay Reagent kit (Pierce Biotechnology). The samples were prepared in Laemmli buffer supplemented with […] and proteins were transferred to nitrocellulose membrane (Amersham). Membranes were blocked for 2 h in blocking buffer (5% BSA, 0.1% Tween 20 in Tris-buffered saline (TBS), pH 7.4) followed by an over-night incubation with the primary antibody diluted in blocking buffer. […]"}, "[2]": {"system": "motor neurons plated on astrocyte monolayers", "test": "Motor neuron survival in astrocyte-motor neuron co-cultures", "assay_type": "cell-based, rat", "conditions": "for Motor neuron survival, percentage of control: co-cultures treated with NGF, mean±SD", "protocol": "Cell cultures and treatments. […] Astrocytes were plated at a density of 2×10^4 cells/cm^2 and maintained in DMEM supplemented with 10% fetal bovine serum, HEPES (3.6 g/l), penicillin ([…]) and streptomycin (100 μg/ml).\nFor co-culture experiments, motor neurons were plated on astrocyte monolayers at a density of 300 cells/cm^2 and maintained in L15 medium supplemented with 0.63 mg/ml bicarbonate, 5 μg/ml insulin, 0.1 mg/ml conalbumin, 0.1 mM putrescine, 30 nM sodium selenite, 20 nM progesterone, 20 mM glucose, 100 IU/ml penicillin, 100 μg/ml streptomycin, and 2% horse serum. Drugs and blocking antibodies were added 3 h after plating at the indicated concentrations.\nTreatments with peroxynitrite and LPS. Peroxynitrite was generously provided by Dr. Rafael Radi (UDELAR, Uruguay) and its concentration determined spectrophotometrically at 302 nm (e=1700 M^−1 cm^−1). Confluent astrocyte monolayers were washed with Dulbecco's phosphate-buffered saline (PBS), supplemented with 0.8 mM MgCl2, 1 mM CaCl2, and 5 mM glucose, and then incubated in 1 ml of 50 mM Na2HPO4, 90 mM NaCl, 5 mM KCl, 0.8 mM MgCl2, 1 mM CaCl2, and 5 mM glucose, pH 7.4. Finally, three additions of 5 μL bolus of peroxynitrite were made to reach the final concentration of 0.5 mM. Five minutes after peroxynitrite exposure, the buffer was removed and replaced with L15 medium, supplemented as described above. In co-culture experiments, motor neurons were plated 1 h after peroxynitrite exposure. […] LPS (from E. coli 026-B6 Cat. No L2654 Sigma) was directly applied to astrocyte monolayers 24 h before and immediately after plating of motor neurons in coculture experiments."}},
  "data": [
    {"molecule": "[N]=O", "note": "[Nitric oxide, reference compound]", "values": [
      {"measurement": "Motor neuron survival, nitric oxide alone", "setting": "[1]; <50 nM from 10 μM NOC-18, without NGF", "value": "did not affect motor neuron survival"}
    ]},
    {"molecule": "N=C(N)NN", "note": "[aminoguanidine]", "values": [
      {"measurement": "Prevention of motor neuron apoptosis induced by NGF", "setting": "[2]; co-culture, 50 μM, 72 h", "value": "significantly prevented"},
      {"measurement": "Motor neuron survival, percentage of control", "setting": "[2]; inhibitor 50 μM, 72 h", "value": "87.0±8.0", "unit": "%"}
    ]},
    {"molecule": "CC(=N)NCCCC[C@H](N)C(=O)O", "note": "[LNIL, L-N6-(1-Iminoethyl)-lysine]", "values": [
      {"measurement": "Prevention of motor neuron apoptosis induced by NGF", "setting": "[2]; co-culture, 10 μM, 72 h", "value": "significantly prevented"}
    ]},
    {"molecule": "FC(F)(F)c1ccccc1-n1ccnc1", "note": "[TRIM, 1-(2-Trifluoromethylphenyl)imidazole]", "values": [
      {"measurement": "Prevention of motor neuron apoptosis induced by NGF", "setting": "[2]; co-culture, 10 μM, 72 h", "value": "significantly prevented"}
    ]},
    {"molecule": "COC(=O)CC[C@H](NC(=O)[C@H](CC(=O)OC)NC(=O)OCc1ccccc1)C(=O)N[C@H](C(=O)N[C@@H](CC(=O)OC)C(=O)CF)C(C)C", "note": "[DEVD-fmk]", "values": [
      {"measurement": "Prevention of NGF-induced motor neuron death by caspase inhibitors", "setting": "[2]; co-culture, 10 μM added every 24 hours", "value": "prevented"}
    ]},
    {"molecule": "CCCNC(=N)NCCC[C@H](N)C(=O)O", "note": "[NPLA, N5[Imino(propylamino)methyl]-Lornithine; Nu-Propyl-L-arginine]", "values": [
      {"measurement": "Prevention of motor neuron apoptosis induced by NGF", "setting": "[2]; co-culture, 10 μM, 72 h", "value": "significantly prevented"},
      {"measurement": "Motor neuron survival, percentage of control", "setting": "[2]; inhibitor 10 μM, 72 h", "value": "110.4±9.2", "unit": "%"}
    ]},
    {"molecule": "Oc1nc(O)c2nc(O)[nH]c2n1", "note": "[urate]", "values": [
      {"measurement": "Prevention of the effects of NGF on motor neurons", "setting": "[2]; co-culture, 200 μM, 72 h", "value": "prevented"}
    ]},
    {"molecule": "BDNF treated with peroxynitrite: brain-derived neurotrophic factor treated with peroxynitrite by the identical protocol (protein, UniProt P23560 129-247, looked up, Neurotrophic factor BDNF peroxynitrite-treated, brain-derived neurotrophic factor treated with peroxynitrite by the identical protocol) Neurotrophic factor BDNF: HSDPARRGELSVCDSISEWVTAADKKTAVDMSGGTVTVLEKVPVSKGQLKQYFYETKCNPMGYTKEGCRGIDKRHWNSQCRTTQSYVRALTMDSKKRIGWRFIRIDTSCVCTLTIKRGR", "values": [
      {"measurement": "Motor neuron survival with peroxynitrite-treated neurotrophin", "setting": "[1]", "value": "induces motor neuron apoptosis"}
    ]},
    {"molecule": "peroxynitrite-treated NGF: NGF oxidised by peroxynitrite, forming high molecular weight NGF aggregates (protein) SSTHPVFHMGEFSVCDSVSVWVGDKTTATDIKGKEVTVLAEVNINNSVFRQYFFETKCRASNPVESGCRGIDSKHWNSYCTTTHTFVKALTTDEKQAAWRFIRIDTACVCVLSRKATRRG", "values": [
      {"measurement": "Motor neuron survival with peroxynitrite-treated neurotrophin", "setting": "[1]", "value": "Decreased motor neuron survival"}
    ]}
  ]
}
